The results in this text go back to PMC13234881, “Synthesis and Cytotoxicity of Complex Betulinic Acid Amides” (ACS Omega, 2026).

The subject of one assay is breast carcinoma MCF7. The experiment in a line: Cytotoxicity screening test, MCF7. The assay is classed as cell-based. To be noted: Homo sapiens; MCF7 breast adenocarcinoma, 72 h; read-out: Cytotoxicity IC50 ± SD, MCF7. The text has this:
(§1) The screening cell lines, T-lymphoblastic leukemia CCRF-CEM, breast carcinoma MCF7, cervical carcinoma HeLa, and human foreskin fibroblasts BJ, were obtained from the American Type Culture Collection (Manassas, VA, USA). The procedure for cell culturing has already been described. ,

Another assay deals with cervical carcinoma HeLa. The experiment in a line: Cytotoxicity screening test, HeLa. Type of assay: cell-based. To be noted: Homo sapiens; HeLa cervical cancer, 72 h; read-out: Cytotoxicity IC50 ± SD, HeLa.
From the text: as §1

`COc1cccc2c1C(=O)c1c(O)c3c(c(O)c1C2=O)C[C@@](O)(C(=O)CO)C[C@@H]3O[C@H]1C[C@H](N)[C@H](O)[C@H](C)O1` [doxorubicin]: the IC50 worked out at 273 ± 19 nM with breast carcinoma MCF7 and 868 ± 54 nM in the assay on cervical carcinoma HeLa.

In general, IC50 refers to the concentration that gives 50% inhibition.
